According to US8987445B2, “Sulfonamide compounds having TRPM8 antagonistic activity” (Mitsubishi Tanabe Pharma Corporation, priority 2011, dated 2015):

target: TRPM8 (Rattus norvegicus (Rat), UniProt Q8R455); test: In vivo TRPM8 antagonistic assay in rats (menthol-induced wet-dog shakes); settings: SD male rats; 3 mg/kg po 1 hour prior to menthol 50 mg/kg ip; WDS counted for 5 min
Protocol: The antagonistic activity of compounds was assessed in the “wet-dog” shakes (WDS) model in rats. […] Pretreatment of the rats with a TRPM8 antagonist prior to menthol administration inhibits the observed shaking behavior.
To assess the ability of a TRPM8 antagonist to prevent menthol induced shaking behavior in Sprague Dawley (SD) male rats, test compounds (3 mg/kg, po, in 0.5% methyl cellulose; N=3-4/group) were administered 1 hour prior to menthol challenge (50 mg/kg, ip, in 10% Macrogol 15 Hydroxystearate/saline). Spontaneous WDS were counted for 5 min post menthol dosing. Inhibition of the spontaneous WDS behavior relative to vehicle pretreatment is expressed as percent inhibition, calculated as follows: % Inhibition=[1−(treatment WDS count/vehicle WDS count)]×100.

TRPM8, sequence (Q8R455 whole entry): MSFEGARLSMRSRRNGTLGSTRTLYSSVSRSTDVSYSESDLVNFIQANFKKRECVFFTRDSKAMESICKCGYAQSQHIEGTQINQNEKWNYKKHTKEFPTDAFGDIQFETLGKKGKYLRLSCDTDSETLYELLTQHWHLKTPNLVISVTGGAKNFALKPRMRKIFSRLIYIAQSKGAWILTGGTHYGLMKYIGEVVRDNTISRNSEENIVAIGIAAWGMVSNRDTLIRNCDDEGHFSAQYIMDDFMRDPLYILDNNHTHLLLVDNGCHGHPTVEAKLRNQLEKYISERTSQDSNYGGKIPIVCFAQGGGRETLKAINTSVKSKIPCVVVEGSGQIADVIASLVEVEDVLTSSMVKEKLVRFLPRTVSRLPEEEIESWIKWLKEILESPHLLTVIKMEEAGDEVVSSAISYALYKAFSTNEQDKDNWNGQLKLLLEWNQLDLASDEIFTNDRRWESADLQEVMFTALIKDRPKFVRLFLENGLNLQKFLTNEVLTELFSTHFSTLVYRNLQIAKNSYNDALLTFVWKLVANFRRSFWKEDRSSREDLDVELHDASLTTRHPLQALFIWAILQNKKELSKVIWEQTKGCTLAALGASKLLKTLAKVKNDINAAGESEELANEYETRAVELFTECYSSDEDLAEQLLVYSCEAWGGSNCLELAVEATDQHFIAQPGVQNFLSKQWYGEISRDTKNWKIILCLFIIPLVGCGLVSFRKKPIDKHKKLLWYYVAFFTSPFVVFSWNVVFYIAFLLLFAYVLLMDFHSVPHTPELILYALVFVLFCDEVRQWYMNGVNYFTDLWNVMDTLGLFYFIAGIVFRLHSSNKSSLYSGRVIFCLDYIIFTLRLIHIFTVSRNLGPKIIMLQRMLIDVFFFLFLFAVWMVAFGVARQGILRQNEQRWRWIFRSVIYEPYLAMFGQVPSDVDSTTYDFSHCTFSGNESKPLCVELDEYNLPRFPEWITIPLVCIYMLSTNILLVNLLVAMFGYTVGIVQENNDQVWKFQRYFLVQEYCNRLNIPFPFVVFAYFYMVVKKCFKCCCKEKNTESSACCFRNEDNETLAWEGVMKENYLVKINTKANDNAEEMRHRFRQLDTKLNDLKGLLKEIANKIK

TRPM8 antagonistic assay (% Inhibition @ 3 mg/kg) | Compound
92.7% | O=C(O)c1ccc(S(=O)(=O)N(Cc2ccc(OC(F)(F)F)cc2)c2ncc3ccccc3c2C(F)(F)F)cc1 [Example 106, 4-({[4-(trifluoromethoxy)benzyl][4-(trifluoromethyl)isoquinolin-3-yl]amino}sulfonyl)benzoic acid]
98.8% | COc1c(N(Cc2ccc(OC(F)(F)F)cc2)S(=O)(=O)c2ccc(C(=O)O)cc2)ncc2ccccc12 [Example 149]
83.5% | O=C(O)c1ccc(S(=O)(=O)N(c2ncc3ccccc3c2C2CC2)C2CCc3cc(OC(F)(F)F)ccc32)cc1 (stereo not drawn) [Example 186]
72.5% | CC(C)c1c(N(Cc2ccc(OC(F)(F)F)cc2)S(=O)(=O)c2ccc(C(=O)O)cc2)ncc2ccccc12 [Example 227]

target: human TRPM8 (Homo sapiens (Human), UniProt Q7Z2W7); test: TRPM8 inhibition assay (menthol-induced calcium influx, FDSS); format: cell-based; settings: HEK293 cells stably expressing human TRPM8; 100 μM menthol; Fura-2AM Ca2+ signal; read-out: TRPM8 Blocking Test (IC50)
Protocol: The functional activity of compounds was determined by measuring changes in intracellular calcium concentration using a Ca^2+ sensitive fluorescent dye. The changes in fluorescent signal were monitored by the cell imaging technology by Hamamatsu Photonics's Functional Drug Screening System (FDSS). […] HEK293 cells stably expressing human TRPM8 were grown in flasks. On assay day, the culture medium was removed, and cells were washed with phosphate-buffered saline (PBS) and harvested with PBS containing 2 mM ethylenediaminetetraacetic acid, disodium salt (EDTA, 2Na). […] Subsequently, suspended 20,000 to 50,000 cells per well were incubated with test compound (at varying concentrations) in each well for 20 min at 37° C. Changes in intracellular Ca^2+ evoked by 100 μM menthol were measured for 2 min using FDSS. IC50 vales were determined from four-point concentration-response studies. Curves were generated using the average of quadruplicate wells for each data point.

human TRPM8, sequence (Q7Z2W7 whole entry): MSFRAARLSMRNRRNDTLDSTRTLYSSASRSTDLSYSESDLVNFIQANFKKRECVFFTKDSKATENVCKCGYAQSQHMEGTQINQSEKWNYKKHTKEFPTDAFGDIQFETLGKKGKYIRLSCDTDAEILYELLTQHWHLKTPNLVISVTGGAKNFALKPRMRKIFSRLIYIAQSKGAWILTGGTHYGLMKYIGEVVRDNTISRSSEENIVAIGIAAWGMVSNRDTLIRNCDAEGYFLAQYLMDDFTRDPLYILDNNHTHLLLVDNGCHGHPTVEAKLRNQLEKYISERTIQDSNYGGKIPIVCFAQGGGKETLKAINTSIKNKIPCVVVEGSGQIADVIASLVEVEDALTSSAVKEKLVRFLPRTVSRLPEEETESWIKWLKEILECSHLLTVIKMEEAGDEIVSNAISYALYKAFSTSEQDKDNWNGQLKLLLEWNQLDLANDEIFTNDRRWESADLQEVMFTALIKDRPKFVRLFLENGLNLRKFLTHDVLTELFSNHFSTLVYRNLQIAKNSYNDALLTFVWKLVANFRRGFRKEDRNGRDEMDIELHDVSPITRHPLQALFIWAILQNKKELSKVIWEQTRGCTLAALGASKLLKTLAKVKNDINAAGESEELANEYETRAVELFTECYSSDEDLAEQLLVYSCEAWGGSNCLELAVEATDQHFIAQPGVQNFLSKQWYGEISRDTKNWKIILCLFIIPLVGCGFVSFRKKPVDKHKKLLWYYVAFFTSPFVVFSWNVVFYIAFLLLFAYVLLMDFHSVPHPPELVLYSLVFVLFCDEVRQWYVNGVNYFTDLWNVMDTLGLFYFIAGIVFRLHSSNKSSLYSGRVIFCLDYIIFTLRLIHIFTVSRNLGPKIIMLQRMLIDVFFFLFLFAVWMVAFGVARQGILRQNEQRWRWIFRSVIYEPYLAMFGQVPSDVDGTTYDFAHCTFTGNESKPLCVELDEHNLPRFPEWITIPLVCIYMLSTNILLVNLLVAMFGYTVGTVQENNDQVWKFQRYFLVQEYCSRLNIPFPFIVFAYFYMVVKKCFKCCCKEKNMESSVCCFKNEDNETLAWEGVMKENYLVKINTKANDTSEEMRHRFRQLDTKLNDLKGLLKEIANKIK

Compound | IC50
O=C(O)c1ccc(S(=O)(=O)N(Cc2ccc(OC(F)(F)F)cc2)c2ncc3ccccc3c2C(F)(F)F)cc1 [Example 106, 4-({[4-(trifluoromethoxy)benzyl][4-(trifluoromethyl)isoquinolin-3-yl]amino}sulfonyl)benzoic acid] | 2 nM
COc1c(N(Cc2ccc(OC(F)(F)F)cc2)S(=O)(=O)c2ccc(C(=O)O)cc2)ncc2ccccc12 [Example 149] | 3.9 nM
O=C(O)c1ccc(S(=O)(=O)N(Cc2ccc(OC(F)(F)F)cc2)c2cc3ccccc3c(C3CC3)n2)cc1 [Example 216] | 66 nM
O=C(O)c1ccc(S(=O)(=O)N(Cc2ccc(OC(F)(F)F)cc2)c2cc3c(C4CC4)cccc3cn2)cc1 [Example 217] | 239 nM
COC(C)(c1ccc(CN(c2ncc3ccccc3c2C)S(=O)(=O)c2ccc(C(=O)O)cc2)cc1F)C(F)(F)F (stereo not drawn) [Example 219] | 2.6 nM
CCOC(C)(c1ccc(CN(c2ncc3ccccc3c2C)S(=O)(=O)c2ccc(C(=O)O)cc2)cc1F)C(F)(F)F (stereo not drawn) [Example 220] | 5 nM
COC(C)(c1ccc(CN(c2ncc3ccccc3c2C)S(=O)(=O)c2ccc(C(=O)O)cc2)cc1Cl)C(F)(F)F (stereo not drawn) [Example 222] | 1.6 nM
COC1(C(F)(F)F)CCc2cc(CN(c3ncc4ccccc4c3C)S(=O)(=O)c3ccc(C(=O)O)cc3)ccc21 (stereo not drawn) [Example 223] | 3.5 nM
COC(C)(c1ccc(CN(c2ncc3ccccc3c2C)S(=O)(=O)c2ccc(C(=O)O)cc2)cc1)C(F)(F)C(F)(F)F (stereo not drawn) [Example 224] | 5.9 nM
Cc1c(N(Cc2ccc(OC(F)(F)F)cc2)S(=O)(=O)c2ccc(C(=O)O)cc2)nc(C(C)C)c2ccccc12 [Example 225] | 2.8 nM
Cc1c(N(Cc2ccc(OC(F)(F)F)cc2)S(=O)(=O)c2ccc(C(=O)O)cc2)nc(C2CCCC2)c2ccccc12 [Example 226] | 9.2 nM
CC(C)c1c(N(Cc2ccc(OC(F)(F)F)cc2)S(=O)(=O)c2ccc(C(=O)O)cc2)ncc2ccccc12 [Example 227] | 5.6 nM
CCOc1nc(N(Cc2ccc(OC(F)(F)F)cc2)S(=O)(=O)c2ccc(C(=O)O)cc2)c(C)c2ccccc12 [Example 228] | 7.2 nM
COc1nc(N(Cc2ccc(OC(F)(F)F)cc2)S(=O)(=O)c2ccc(C(=O)O)cc2)c(C)c2cccc(C)c12 [Example 229] | 44 nM
CC(C)c1nc(N(Cc2ccc(OC(F)(F)F)cc2)S(=O)(=O)c2ccc(C(=O)O)cc2)c(C2CC2)c2ccccc12 [Example 231] | 6.9 nM
O=C(O)c1ccc(S(=O)(=O)N(Cc2ccc(OC(F)(F)F)cc2)c2nc(C3CC3)c3ccccc3c2C2CC2)cc1 [Example 232] | 10 nM
Cc1c(N(Cc2ccc3c(c2)c(Cl)cn3C)S(=O)(=O)c2ccc(C(=O)O)cc2)ncc2ccccc12 [Example 237] | 12 nM
CCONC(=O)c1ccc(S(=O)(=O)N(Cc2ccc(OC(F)(F)F)cc2)c2ncc3ccccc3c2C)cc1 [Example 240] | 18 nM

Now from value to compound:

IC50 | Compound
4.3 nM | O=C(O)c1ccc(S(=O)(=O)N(c2ncc3ccccc3c2C2CC2)C2CCc3cc(OC(F)(F)F)ccc32)cc1 (stereo not drawn) [Example 186]
21 nM | COCc1nc(N(Cc2ccc(OC(F)(F)F)cc2)S(=O)(=O)c2ccc(C(=O)O)cc2)c(C)c2ccccc12 [Example 218]
44 nM | Cc1c(N(Cc2ccc(OC(F)(F)F)cc2)S(=O)(=O)c2ccc(C(=O)O)cc2)ncc2cccc(Cl)c12 [Example 230]
522 nM | Cc1c(N(Cc2ccc3[nH]cc(Cl)c3c2)S(=O)(=O)c2ccc(C(=O)O)cc2)ncc2ccccc12 [Example 236]
103 nM | CNC(=O)c1ccc(S(=O)(=O)N(Cc2ccc(OC(F)(F)F)cc2)c2ncc3ccccc3c2C)cc1 [Example 238]
14 nM | Cc1c(N(Cc2ccc(OC(F)(F)F)cc2)S(=O)(=O)c2ccc(C(=O)NC#N)cc2)ncc2ccccc12 [Example 239]
8.5 nM | NC(=O)c1ccc(S(=O)(=O)N(Cc2ccc(OC(F)(F)F)cc2)c2ncc3ccccc3c2C2CC2)cc1 [Example 241]
10 nM | NC(=O)c1ccc(S(=O)(=O)N(Cc2ccc(OC(F)(F)F)cc2)c2ncc3ccccc3c2C(F)(F)F)cc1 [Example 242]
